In general, DC50 refers to the concentration at which degradation of the target reaches its halfway point. Lower therefore signals degradation at low concentration.

The target of one assay is BTK (Homo sapiens, UniProt Q06187). Nature of the assay: BTK cell degradation in TMD-8 cells, HTRF assay. The assay is classed as cell-based. Set-up: endogenous in cells; host or cells: TMD-8 cells. As to conditions: 6 h treatment, IC50 (DC50) of BTK degradation. In a few lines:
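BTK levels read by HTRF in lysates of TMD-8 cells exposed to compounds for 6 h, eight concentrations at 6-fold steps in 0.2% DMSO. Percent degradation versus DMSO and low controls was fitted with a four-parameter equation to give DC50; Dmax is maximal degradation.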

The next assay has as its system HEK-293 cells. Nature of the assay: HEK-293 cytotoxicity detection (CellTiter-Glo). The assay is classed as cell-based. As to conditions: Homo sapiens, 72 h, 72 h incubation, CellTiter-Glo luminescence, read-out: HEK293. An outline of the steps:
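HEK-293 cells exposed 72 h to 8 compounds doses (4-fold dilutions, top stock 5 mM at 500×) in 0.2% DMSO. Viability by CellTiter-Glo luminescence; inhibition normalised to DMSO high control and low control, IC50 from four-parameter curve fit.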
In general terms: Cellular ATP, detected with luciferase, serves as a proxy for viable cell number.

pIC50: −log10 of the molar value.

Chain of BTK (Q06187 whole entry): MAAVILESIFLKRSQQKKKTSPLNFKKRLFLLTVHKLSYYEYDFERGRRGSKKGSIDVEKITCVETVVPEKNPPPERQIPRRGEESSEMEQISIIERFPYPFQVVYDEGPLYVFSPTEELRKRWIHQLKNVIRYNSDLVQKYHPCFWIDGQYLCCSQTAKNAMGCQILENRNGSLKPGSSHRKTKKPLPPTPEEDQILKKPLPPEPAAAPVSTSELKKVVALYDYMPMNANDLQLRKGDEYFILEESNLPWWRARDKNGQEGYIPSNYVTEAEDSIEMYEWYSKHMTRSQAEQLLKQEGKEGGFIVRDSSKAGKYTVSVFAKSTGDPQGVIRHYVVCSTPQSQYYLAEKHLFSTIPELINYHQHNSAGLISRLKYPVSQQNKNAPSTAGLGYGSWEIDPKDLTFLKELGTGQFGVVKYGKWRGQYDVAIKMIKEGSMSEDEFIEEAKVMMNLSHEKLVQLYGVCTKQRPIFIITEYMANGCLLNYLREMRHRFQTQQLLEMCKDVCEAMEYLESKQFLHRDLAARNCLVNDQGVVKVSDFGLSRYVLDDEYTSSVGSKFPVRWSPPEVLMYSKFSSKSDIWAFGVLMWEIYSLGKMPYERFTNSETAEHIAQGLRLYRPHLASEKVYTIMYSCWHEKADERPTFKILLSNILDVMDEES

For `Cc1cccc(NC(=O)c2ccc(-c3nn4c(c3C(N)=O)Nc3ccc(N5CCN(CC6CCN(c7ccc(N8CCC(=O)N(COC(=O)C(C)(C)C)C8=O)cc7)CC6)CC5)cc3CC4)c(F)c2C)n1` [Example B78, (3-(4-(4-((4-(3-carbamoyl-2-(2-fluoro-3-methyl-4-((6-methylpyridin-2-yl)carbamoyl)phenyl)-9,10-dihydro-4H-benzo[d]pyrazolo[1,5-a][1,3]diazepin-7-yl)piperazin-1-yl)methyl)piperidin-1-yl)phenyl)-2,6-dioxotetrahydropyrimidin-1(2H)-yl)methyl pivalate], the DC50 at BTK worked out at 6.27 nM. For the same compound, in the assay on HEK-293 cells, the pIC50 is below 5.00.

At BTK, `NC(=O)c1c(-c2ccc(Oc3ccccc3)cc2)nn2c1Nc1ccc(N3CCN(CC4CCN(c5ccc6c(c5)C(=O)N(C5CCC(=O)NC5=O)C6=O)CC4)CC3)cc1CC2` (stereo not drawn) [Example A6, 7-(4-((1-(2-(2,6-dioxopiperidin-3-yl)-1,3-dioxoisoindolin-5-yl)piperidin-4-yl)methyl)piperazin-1-yl)-2-(4-phenoxyphenyl)-9,10-dihydro-4H-benzo[d]pyrazolo[1,5-a][1,3]diazepine-3-carboxamide] yielded a DC50 of 3.42 nM. Moreover, the pIC50 with HEK-293 cells was 6.79.

Regarding `Cc1cccc(NC(=O)c2ccc(-c3nn4c(c3C(N)=O)Nc3ccc(N5CCN(C6CN(C7CN(c8ccc9c(c8)C(=O)N(C8CCC(=O)NC8=O)C9=O)C7)C6)CC5)cc3CC4)c(F)c2C)n1` (stereo not drawn) [Example B57, 7-(4-(1′-(2-(2,6-dioxopiperidin-3-yl)-1,3-dioxoisoindolin-5-yl)-[1,3′-biazetidin]-3-yl)piperazin-1-yl)-2-(2-fluoro-3-methyl-4-((6-methylpyridin-2-yl)carbamoyl)phenyl)-9,10-dihydro-4H-benzo[d]pyrazolo[1,5-a][1,3]diazepine-3-carboxamide], at BTK, the DC50 came out at 0.526 nM. Further, the pIC50 with HEK-293 cells is below 5.00.

The compound `COc1ccccc1C(=O)NC(C)c1ccc(-c2nn3c(c2C(N)=O)Nc2ccc(N4CCN(CC5CCN(c6ccc(N7CCC(=O)NC7=O)cc6)CC5)CC4)cc2CC3)cc1` (stereo not drawn) [Example C5, 7-(4-((1-(4-(2,4-dioxotetrahydropyrimidin-1(2H)-yl)phenyl)piperidin-4-yl)methyl)piperazin-1-yl)-2-(4-(1-(2-methoxybenzamido)ethyl)phenyl)-9,10-dihydro-4H-benzo[d]pyrazolo[1,5-a][1,3]diazepine-3-carboxamide] showed a DC50 at BTK of 3.82 nM. For the same compound, in the assay on HEK-293 cells, the pIC50 is below 5.00.

As to `NC(=O)c1c(-c2ccc(C(=O)Nc3ccc(C(F)(F)F)cn3)cc2)nn2c1Nc1ccc(N3CCN(CC4CCN(c5ccc(N6CCC(=O)NC6=O)cc5)CC4)CC3)cc1CC2` [Example B17, 7-(4-((1-(4-(2,4-dioxotetrahydropyrimidin-1(2H)-yl)phenyl)piperidin-4-yl)methyl)piperazin-1-yl)-2-(4-((5-(trifluoromethyl)pyridin-2-yl)carbamoyl)phenyl)-9,10-dihydro-4H-benzo[d]pyrazolo[1,5-a][1,3]diazepine-3-carboxamide], the DC50 at BTK was 2.19 nM. In addition, the pIC50 in the assay on HEK-293 cells was below 5.00.

On BTK, `Cc1cccc(NC(=O)c2ncc(-c3nn4c(c3C(N)=O)Nc3ccc(N5CCN(CCc6cc(F)c(C7CCC(=O)NC7=O)c(F)c6)CC5)cc3CC4)cc2C)n1` (stereo not drawn) [Example B33, 7-(4-(4-(2,6-dioxopiperidin-3-yl)-3,5-difluorophenethyl)piperazin-1-yl)-2-(5-methyl-6-((6-methylpyridin-2-yl)carbamoyl)pyridin-3-yl)-9,10-dihydro-4H-benzo[d]pyrazolo[1,5-a][1,3]diazepine-3-carboxamide] registered a DC50 of 17.6 nM. In the assay on HEK-293 cells, the pIC50 was 6.40.

`COc1ccccc1C(=O)NCc1ccc(-c2nn3c(c2C(N)=O)Nc2ccc(N4CCN(CC5CCN(c6ccc(N7CCC(=O)NC7=O)cc6)CC5)CC4)cc2CC3)cc1C(F)(F)F` [Example C45, 7-(4-((1-(4-(2,4-dioxotetrahydropyrimidin-1(2H)-yl)phenyl)piperidin-4-yl)methyl)piperazin-1-yl)-2-(4-((2-methoxybenzamido)methyl)-3-(trifluoromethyl)phenyl)-9,10-dihydro-4H-benzo[d]pyrazolo[1,5-a][1,3]diazepine-3-carboxamide]: the DC50 on BTK is 56.4 nM. Also, the pIC50 with HEK-293 cells was below 5.00.

Turning to `NC(=O)c1c(-c2cc(F)c(C(=O)Nc3cc(C(F)(F)F)ccn3)c(F)c2)nn2c1Nc1ccc(N3CCN(CC4CCN(c5ccc(N6CCC(=O)NC6=O)cc5)CC4)CC3)cc1CC2` [Example B14, 2-(3,5-difluoro-4-((4-(trifluoromethyl)pyridin-2-yl)carbamoyl)phenyl)-7-(4-((1-(4-(2,4-dioxotetrahydropyrimidin-1(2H)-yl)phenyl)piperidin-4-yl)methyl)piperazin-1-yl)-9,10-dihydro-4H-benzo[d]pyrazolo[1,5-a][1,3]diazepine-3-carboxamide], at BTK, the DC50 turned out to be 1.61 nM. In addition, the pIC50 with HEK-293 cells was 7.12.

Compound `COc1ccc2ccccc2c1C(=O)NCc1ccc(-c2nn3c(c2C(N)=O)Nc2ccc(N4CCN(CC5CCN(c6ccc(N7CCC(=O)NC7=O)cc6)CC5)CC4)cc2CC3)cc1F` [Example C20, 7-(4-((1-(4-(2,4-dioxotetrahydropyrimidin-1(2H)-yl)phenyl)piperidin-4-yl)methyl)piperazin-1-yl)-2-(3-fluoro-4-((2-methoxy-1-naphthamido)methyl)phenyl)-9,10-dihydro-4H-benzo[d]pyrazolo[1,5-a][1,3]diazepine-3-carboxamide] showed a half-maximal degradation concentration (DC50) at BTK of 0.956 nM. In addition, the pIC50 in the assay with HEK-293 cells is below 5.00.

As to `COc1ccccc1C(=O)NCc1ccc(-c2nn3c(c2C(N)=O)Nc2ccc(N4CCN(CC5CCN(c6ccc(N7CCC(=O)NC7=O)cc6)CC5)CC4)cc2CC3)c(F)c1F` [Example C47, 2-(2,3-difluoro-4-((2-methoxybenzamido)methyl)phenyl)-7-(4-((1-(4-(2,4-dioxotetrahydropyrimidin-1(2H)-yl)phenyl)piperidin-4-yl)methyl)piperazin-1-yl)-9,10-dihydro-4H-benzo[d]pyrazolo[1,5-a] [1,3]diazepine-3-carboxamide], it took 4.64 nM to reach half-maximal degradation at BTK (DC50). In the assay on HEK-293 cells, the pIC50 is 6.65.

In the case of `Cc1cc(C(F)(F)F)cc(NC(=O)c2ccc(-c3nn4c(c3C(N)=O)Nc3ccc(N5CCN(CC6CCN(c7ccc(N8CCC(=O)NC8=O)cc7)CC6)CC5)cc3CC4)c(F)c2C)n1` [Example B29, 7-(4-((1-(4-(2,4-dioxotetrahydropyrimidin-1(2H)-yl)phenyl)piperidin-4-yl)methyl)piperazin-1-yl)-2-(2-fluoro-3-methyl-4-((6-methyl-4-(trifluoromethyl)pyridin-2-yl)carbamoyl)phenyl)-9,10-dihydro-4H-benzo[d]pyrazolo[1,5-a][1,3]diazepine-3-carboxamide], the half-maximal degradation concentration (DC50) at BTK amounted to 2.44 nM. For the same compound, the pIC50 with HEK-293 cells was below 5.00.

Regarding `Cc1c(C(=O)Nc2cscn2)ccc(-c2nn3c(c2C(N)=O)Nc2ccc(N4CCN(C5CC(c6ccc(N[C@H]7CCC(=O)NC7=O)cc6)C5)CC4)cc2CC3)c1F` (stereo partly drawn) [Example B101, (S)-7-(4-(3-(4-((2,6-dioxopiperidin-3-yl)amino)phenyl)cyclobutyl)piperazin-1-yl)-2-(2-fluoro-3-methyl-4-(thiazol-4-ylcarbamoyl)phenyl)-9,10-dihydro-4H-benzo[d]pyrazolo[1,5-a][1,3]diazepine-3-carboxamide], the DC50 on BTK amounted to 2.42 nM. For the same compound, the pIC50 with HEK-293 cells is 7.49.

(Values after patent US20240246977A1, “DEGRADATION OF BRUTON'S TYROSINE KINASE (BTK) BY CONJUGATION OF BTK INHIBITORS WITH E3 LIGASE LIGAND AND METHOD OF USE” (BeiGene Switzerland GmbH, priority 2021, published 2024).)
